This note sets out measurements from DBAASP.

Each structure is given as a SMILES string. Converted amounts (≈) assume the structure as drawn. “And” between values parts separate entries of the source, which are not always exact repeats. Equal values may be shown once.

By MIC is commonly meant the least concentration at which growth counts as inhibited. Lower therefore signals greater potency.

Among the test systems are Nocardia asteroides; Candida glabrata 090902; Escherichia coli W160-37; Staphylococcus aureus; Escherichia coli; Bacillus thuringiensis; Pseudomonas sp. ADP; Arthrobacter sp.; Bacillus subtilis.
What all share (assay): ≥ marks a high value that may be exact or a test limit, other limits are often not marked, values filed in µg/mL are converted to µM
Assay [1] has as its system Enterobacter cloacae CGMCC 1.57.
Assay [2] has as its system Klebsiella pneumoniae 08040724.
The subject of assay [3] is Staphylococcus aureus ATCC 25923.
Assay [4] relates to Escherichia coli ATCC 25922.
The test system of assay [5] is Pseudomonas aeruginosa CGMCC 1.50.
Assay [6] deals with Enterococcus faecalis 981.
Assay [7] deals with Enterococcus faecium 091299.
Assay [8] relates to Psychrobacter faecalis X29.
Assay [9] deals with Candida albicans ATCC 10231.
Assay [10] concerns Pseudomonas aeruginosa NCTC 6751.
In assay [11] the test system is Staphylococcus aureus ATCC 8530.
The subject of assay [12] is Staphylococcus aureus A170.
In assay [13] the test system is Staphylococcus epidermidis.
Assay [14] has as its system Bacillus subtilis KCTC 3068.
The test system of assay [15] is Escherichia coli CCARM 1229.
Assay [16] has as its system Salmonella typhimurium KCTC 1926.
Assay [17] concerns Staphylococcus epidermidis KCTC 1917.
Assay [18] relates to Pseudomonas aeruginosa KCTC 1637.
Assay [19] deals with Escherichia coli KCTC 1682.
Assay [20] has as its system Escherichia coli CCARM 1238.
Assay [21] concerns Salmonella typhimurium CCARM 8009.
The test system of assay [22] is Staphylococcus aureus KCTC 1621.
Assay [23] has as its system Salmonella typhimurium CCARM 8003.
Assay [24] relates to Staphylococcus aureus CCARM 3089.
For assay [25], the system named is Staphylococcus aureus CCARM 3114.
Assay [26] relates to Micrococcus luteus ATCC 49732.
In assay [27] the test system is Pseudomonas aeruginosa ATCC 27853.
Assay [28] has as its system Staphylococcus aureus ATCC 29213.
The test system of assay [29] is Klebsiella oxytoca ATCC 49131.
The subject of assay [30] is Candida albicans ATCC 37092.
Assay [31] has as its system Enterococcus faecalis ATCC 29212.
The subject of assay [32] is Proteus vulgaris ATCC 49132.
Assay [33] has as its system Candida tropicalis ATCC 37097.
Assay [34] concerns Aspergillus niger CECT 2694.
The subject of assay [35] is Penicillium expansum EPS 26.
The test system of assay [36] is Rhizopus stolonifer CECT 2344.
Assay [37] deals with Fusarium oxysporum f. sp. lycopersici ATCC 201829.

For the compound `CC[C@H](C)[C@H](NC(=O)[C@H](CCCCN)NC(=O)[C@H](CC(C)C)NC(=O)[C@H](C)NC(=O)[C@@H](NC(=O)CNC(=O)[C@H](CCSC)NC(=O)[C@@H](N)Cc1ccccc1)[C@@H](C)O)C(=O)N[C@@H](C)C(=O)N[C@@H](C)C(=O)N[C@@H](CC(N)=O)C(=O)N[C@H](C(=O)N[C@@H](CC(C)C)C(=O)N1CCC[C@H]1C(=O)N[C@@H](C)C(=O)N[C@@H](C)C(=O)N[C@@H](Cc1ccccc1)C(=O)N[C@H]1CSSC[C@@H](C(=O)O)NC(=O)[C@H](CCCCN)NC(=O)[C@H](CCCCN)NC(=O)[C@H](Cc2ccccc2)NC(=O)[C@H]([C@@H](C)CC)NC(=O)[C@H](CCCCN)NC1=O)C(C)C` [FMGTALKIAANVLPAAFCKIFKKC], the MIC in assay [1] was not below 100 µM; in the assay with Nocardia asteroides, 3.1 µM (≈ 8.01 µg/mL); in assay [2], not below 400 µM; in assay [3], 3.1 µM (≈ 8.01 µg/mL); in [4] it was 200 µM (≈ 517 µg/mL); in assay [5], not below 400 µM. For the same compound, the MIC in assay [6] is 3.1 µM (≈ 8.01 µg/mL); in assay [7] it was not below 100 µM; in [8], 12.5 µM (≈ 32.3 µg/mL); in the assay on Candida glabrata 090902, 12.5 µM (≈ 32.3 µg/mL); in assay [9], 100 µM (≈ 258 µg/mL).

For the compound `CC(=O)N[C@@H](Cc1ccccc1)C(=O)N[C@@H](CCCN=C(N)N)C(=O)N[C@@H](CCCCN)C(=O)N[C@@H](CC(C)C)C(=O)N[C@@H](Cc1ccccc1)C(=O)N[C@@H](CCCN=C(N)N)C(=O)N[C@H](C(=O)N[C@@H](Cc1ccc(O)cc1)C(=O)N[C@@H](CO)C(=O)N[C@@H](CC(N)=O)C(=O)N[C@@H](Cc1ccccc1)C(=O)N[C@@H](CC(C)C)C(=O)N[C@@H](CCCN=C(N)N)C(=O)NCC(=O)N[C@@H](CCCCN)C(=O)N[C@@H](CC(C)C)C(=O)N[C@@H](CCCCN)C(=O)N[C@@H](CC(C)C)C(N)=O)C(C)C` [FRKLFRVYSNFLRGKLKL], the MIC in assay [10] turned out to be 22 µM (≈ 51.2 µg/mL); in assay [11], 11 µM (≈ 25.6 µg/mL); in the assay with Escherichia coli W160-37, 11 µM (≈ 25.6 µg/mL).

For the compound `CC[C@H](C)[C@H](NC(=O)[C@H](CCCN=C(N)N)NC(=O)[C@H](CC(C)C)NC(=O)CN)C(=O)N[C@@H](CC(C)C)C(=O)N[C@@H](CC(C)C)C(=O)N[C@@H](CC(C)C)C(=O)N[C@@H](CCCCN)C(=O)N[C@H](C(N)=O)C(C)C` [GLRILLLKV], the MIC was 3 µM (≈ 3.07 µg/mL) against Staphylococcus aureus; 77.2 µM (≈ 79 µg/mL) with Escherichia coli; 30.8 µM (≈ 31.5 µg/mL) in the assay with Bacillus thuringiensis; 15.4 µM (≈ 15.8 µg/mL) with Pseudomonas sp. ADP; not below 46.3 µM against Arthrobacter sp.; 12.4 µM (≈ 12.7 µg/mL) in the assay with Bacillus subtilis.

As for `CC[C@H](C)[C@H](NC(=O)[C@@H]1CCCN1C(=O)[C@H](CC(C)C)NC(=O)[C@@H](N)CC(C)C)C(=O)N[C@H](C(=O)NCC(=O)N[C@@H](C)C(=O)N[C@@H](CC(C)C)C(=O)N[C@@H](CC(C)C)C(=O)N[C@@H](CCCCN)C(=O)N[C@@H](CO)C(=O)N[C@@H](CC(C)C)C(=O)N[C@@H](CC(C)C)C(=O)O)C(C)C` [LLPIVGALLKSLL], the figures for the MIC in [12] and in assay [13] were 14.8 µM (≈ 20 µg/mL) and 7.41 µM (≈ 10 µg/mL), respectively.

`CC[C@H](C)[C@H](NC(=O)[C@H](C)NC(=O)[C@H](CC(C)C)NC(=O)[C@H](Cc1c[nH]c2ccccc12)NC(=O)[C@H](CC(C)C)NC(=O)[C@@H](N)CCCN=C(N)N)C(=O)N[C@@H](Cc1c[nH]c2ccccc12)C(=O)N[C@@H](CCCN=C(N)N)C(=O)N[C@@H](CCCN=C(N)N)C(N)=O` [RLWLAIWRR]: the MIC in assay [14] is 2 µM (≈ 2.54 µg/mL); in assay [15] it was 8 µM (≈ 10.1 µg/mL); in assay [16], 8 µM (≈ 10.1 µg/mL); in [17], 1 µM (≈ 1.27 µg/mL); in assay [18] it was 11.3 µM (≈ 14.4 µg/mL); in assay [19] it was 2 µM (≈ 2.54 µg/mL). Besides, the minimum inhibitory concentration (MIC) in assay [20] came to 4 µM (≈ 5.07 µg/mL); in assay [21] it was 8 µM (≈ 10.1 µg/mL); in assay [22], 2 µM (≈ 2.54 µg/mL); in assay [23], 16 µM (≈ 20.3 µg/mL); in [24], 2 µM (≈ 2.54 µg/mL); in assay [25] it was 4 µM (≈ 5.07 µg/mL).

As to `CC(C)C[C@H](NC(=O)[C@H](CCCN=C(N)N)NC(=O)[C@H](CCCN=C(N)N)NC(=O)[C@H](Cc1ccc(O)cc1)NC(=O)[C@H](CC(C)C)NC(=O)[C@H](CCCN=C(N)N)NC(=O)[C@H](CCCN=C(N)N)NC(=O)[C@H](Cc1ccc(O)cc1)NC(=O)[C@H](CC(C)C)NC(=O)[C@H](CCCN=C(N)N)NC(=O)[C@H](CCCN=C(N)N)NC(=O)[C@H](Cc1ccc(O)cc1)NC(=O)[C@H](CC(C)C)NC(=O)[C@@H](N)CCCN=C(N)N)C(=O)N[C@@H](Cc1ccc(O)cc1)C(=O)N[C@@H](CCCN=C(N)N)C(N)=O` [RLYRRLYRRLYRRLYR], the MIC was 0.6 µM (≈ 1.42 µg/mL) in assay [26]; 0.5 µM and 1 µM in [27]; 1 µM and 0.7 µM in assay [4]; 1.8 µM and 1.1 µM in assay [28]; 0.9 µM (≈ 2.13 µg/mL) in assay [29]; 1.2 µM and 1.9 µM in assay [30]. Also, the minimal inhibitory concentration (MIC) in assay [31] is 0.9 µM and 1.4 µM; in [32], 1.8 µM and 1.2 µM; in assay [33], 0.8 µM and 1.2 µM.

In the case of `CC[C@H](C)[C@H](NC(=O)[C@H](CCCCN)NC(=O)[C@H](CCCCN)NC(=O)[C@H](Cc1ccccc1)NC(=O)[C@H](CC(C)C)NC(=O)[C@H](CCCCN)NC(=O)[C@@H](N)Cc1ccc(O)cc1)C(=O)N[C@@H](CC(C)C)C(=O)N[C@@H](CCCCN)C(=O)N[C@H](C(=O)N[C@@H](CC(C)C)C(N)=O)C(C)C` [YKLFKKILKVL], the minimal inhibitory concentration (MIC) in assay [34] is 17.3 µM (≈ 24.1 µg/mL); in assay [35], not below 35.4 µM; in assay [36] it was not below 70.7 µM; in assay [37] it was 1.73 µM (≈ 2.41 µg/mL).
